One molecule from ChEMBL document CHEMBL1151167, “New marine sesquiterpenoids and diterpenoids from the Okinawan soft coral Clavularia koellikeri” (2004) can be followed below.

In brackets after ≈: the same amount, converted by molar mass.

Common to all, as to type: functional
For one assay, the system named is NCI-H522. Nature of the assay: Cytotoxicity against human NCI-H522 cells after 48 hrs by SRB assay. Particulars: NCI-H522, 48 h.
The next assay deals with LOX IMVI. Description: Cytotoxicity against human LOXIMVI cells after 48 hrs by SRB assay.
The subject of the next assay is MKN-74. Nature of the assay: Cytotoxicity against human MKN74 cells after 48 hrs by SRB assay. Particulars: MKN-74, 48 h. A general note: Sulforhodamine B stains cellular protein and so reports cell mass.
In another assay the test system is SF-539. Nature of the assay: Cytotoxicity against human SF539 cells after 48 hrs by SRB assay. The conditions noted are these: SF-539, 48 h.
Another assay deals with SNB-75. Description: Cytotoxicity against human SNB75 cells after 48 hrs by SRB assay. Particulars: SNB-75, 48 h.

As for `C/C1=C\CC2=CC[C@@H](C(C)C)[C@]2(C)C[C@@H](O)/C(C)=C/CC1`, the GI50 – broadly, the concentration giving 50% growth inhibition – turned out to be 5.2 mg/L (≈ 18 µM) in the assay on NCI-H522; 4.9 mg/L (≈ 17 µM) with LOX IMVI; 5.2 mg/L (≈ 18 µM) with MKN-74; 4.9 mg/L (≈ 17 µM) in the assay on SF-539; 4.9 mg/L (≈ 17 µM) with SNB-75.
